The subject of this data set is human cornea model (MCTT HCE^TM). The experiment in a line: Eye irritation test, human cornea model (MCTT HCE). The class given is cell-based. The settings on record: for Cell survival (%Control): 10 min exposure, 18 h post-culture, WST-1; for Average absorption: mean of N1 and N2; for Absorption (N1): replicate N1, WST-1, 450 nm; for Absorption (N2): replicate N2, WST-1, 450 nm. The procedure: To evaluate the eye irritation potential of the peptide, an in vitro experimental model recognized by the OECD as an alternative animal evaluation method, the human cornea model (MCTT HCE^TM), was used. The experiment was conducted according to the standard experimental method provided by the manufacturer, Biosolution (Seoul, Republic of Korea). First, before the experiment, the color interference of the test material was checked, and to begin the experiment, MCTT HCE^TM was incubated for 22 h at 5% CO2 and 37 °C. Next, 40 μL of the peptide was applied to the top of the MCTT HCE^TM and left to react for 10 min. Afterwards, the peptide was removed using DPBS, and MCTT HCE^TM was transferred to a new medium and cultured for 18 h at 5% CO2 and 37 °C. After the culture was completed, 200 μL/well of WST-1 solution diluted at a ratio of 1:25 was added to a new plate, MCTT HCE^TM was transferred thereon, and 100 μL of WST-1 solution was treated inside.
A general note: Tetrazolium dyes change colour on reduction, which living cells bring about.

Data on one substance can be found in PMC11277145, “Wrinkle-Improving Effect of Novel Peptide That Binds to Nicotinic Acetylcholine Receptor” (International Journal of Molecular Sciences, 2024).

Where no end group is shown, it is not given here.

With RRGVRR [Peptide 289], under “0.1ppm”, the “Average absorption, second value” stood at 1.469; the “Cell survival (%Control)” value was found to be 105.30%; the Average absorption amounted to 1.523; the “Absorption (N1)” value is on record as 1.461. For the same substance, where the note is “0.1ppm”, the “Absorption (N2)” value came to 1.585. In addition, where the note is “0.1 ppm to 100 ppm, MCTT HCE”, the “eye irritation” value is listed as “non-irritating”. For the setting “1ppm”, the “Average absorption, second value” was found to be 1.553; the “Cell survival (%Control)” value turned out to be 111.30%; the Average absorption was 1.607; the “Absorption (N1)” value came to 1.558. Also, the “Absorption (N2)” value (1ppm) amounted to 1.656. Under “10ppm”, the “Average absorption, second value” was 1.47; the “Cell survival (%Control)” value is 105.30%; the Average absorption was 1.524; the “Absorption (N1)” value is listed as 1.464. For the same substance, the “Absorption (N2)” value (10ppm) was 1.583. Where the note is “100ppm”, the “Average absorption, second value” turned out to be 1.456; the “Cell survival (%Control)” value came to 104.30%; the Average absorption stood at 1.51; the “Absorption (N1)” value is on record as 1.563. The “Absorption (N2)” value (100ppm) was determined as 1.456.
